In ChEMBL document CHEMBL3352448, “Phytochemical analysis and antileukemic activity of polyphenolic constituents of Toona sinensis” (Bioorg Med Chem Lett, 2014):
The source made the active and inactive calls. No cut-off for these calls is given here.

What was measured:
[1] = (§1) Cytotoxicity against human HL60 cells assessed as cell survival at 50 uM after 72 hrs by CCK8 assay; format: functional; conditions: HL-60, 72 h, read-out: Survival
[2] = Retention time of the compound by UPLC analysis; format: physicochemical
HL-60 [3] = assay: as §1; format: functional
HL-60 [4] = assay: Induction of apoptosis in human HL60 cells assessed as nuclear fragmentation at 50 uM by Hoechst 33342 staining method; format: functional, cell-based
HL-60 [5] = assay: Induction of apoptosis in human HL60 cells assessed as chromatin condensation at 50 uM by Hoechst 33342 staining method; format: functional, cell-based
HL-60 [6] = assay: Induction of apoptosis in human HL60 cells assessed as membrane blebbing at 50 uM by Hoechst 33342 staining method; format: functional, cell-based
HL-60 [7] = assay: Induction of cell morphological changes in human HL60 cells assessed as increase in cellular size at 50 uM by Giemsa staining method; format: functional, cell-based
HL-60 [8] = assay: Induction of cell morphological changes in human HL60 cells assessed as increase in cytoplasmic content at 50 uM by Giemsa staining method; format: functional, cell-based
HL-60 [9] = assay: Induction of cell morphological changes in human HL60 cells assessed as increase in nuclear complexity at 50 uM by Giemsa staining method; format: functional, cell-based

SMILES	viability at 50 µM [1] [%]	Retention_time [2] [min]	other results
Oc1cc(O)c2c(c1)O[C@H](c1ccc(O)c(O)c1)[C@@H](O)C2 [CIANIDANOL]	47	13.56	–
O=c1c(O)c(-c2ccc(O)c(O)c2)oc2cc(O)cc(O)c12 [QUERCETIN]	29.7	28.97	–
O=c1c(O)c(-c2ccc(O)cc2)oc2cc(O)cc(O)c12	–	–	Activity (HL-60 [3]): Active
O=C(O)c1cc(O)c(O)c(O)c1 [GALLIC ACID]	4.3	5.04	–
CCOC(=O)c1cc(O)c(O)c(O)c1 [ETHYLGALLATE]	55.7	20.55	–
O=c1c(O[C@@H]2O[C@H](CO)[C@@H](O)[C@H](O)[C@H]2O)c(-c2ccc(O)cc2)oc2cc(O)cc(O)c12	–	–	Activity (HL-60 [3]): Active
C[C@@H]1O[C@@H](Oc2c(-c3ccc(O)c(O)c3)oc3cc(O)cc(O)c3c2=O)[C@H](O)[C@H](O)[C@H]1O [QUERCITRIN]	46.8	23.37	–
C[C@@H]1O[C@@H](Oc2c(-c3ccc(O)cc3)oc3cc(O)cc(O)c3c2=O)[C@H](O)[C@H](O)[C@H]1O [AFZELIN]	45.8	25.42	–
Oc1cc(O)c2c(c1)O[C@H](c1ccc(O)c(O)c1)[C@@H](O)[C@@H]2c1c(O)cc(O)c2c1O[C@H](c1ccc(O)c(O)c1)[C@@H](O)C2	58.9	14.6	–
O=C(O[C@H]1[C@H](Oc2c(-c3ccc(O)cc3)oc3cc(O)cc(O)c3c2=O)O[C@H](CO)[C@@H](O)[C@@H]1O)c1cc(O)c(O)c(O)c1	48.3	27.02	–
O=C(OC[C@H]1O[C@@H](Oc2c(-c3ccc(O)cc3)oc3cc(O)cc(O)c3c2=O)[C@H](OC(=O)c2cc(O)c(O)c(O)c2)[C@@H](O)[C@@H]1O)c1cc(O)c(O)c(O)c1	24.6	23.37	Activity (HL-60 [4]): Active; Activity (HL-60 [5]): Active; Activity (HL-60 [6]): Active; Activity (HL-60 [7]): Active; Activity (HL-60 [8]): Active; Activity (HL-60 [9]): Active
Oc1cc(O)c2c(c1)O[C@H](c1ccc(O)c(O)c1)[C@H](O)C2 [(-)-EPICATECHIN]	–	17.1	–
